The results in this text go back to patent publication US20180201647A1, “Peptoid” (The University of Durham, priority 2015, published 2018).

As a reminder, the IC50 is the midpoint of a concentration-inhibition curve.

Assay type in all cases: cell-based
In experiment [1] the test system is Escherichia coli K12 W3110. As for the experimental part:
(§1) Species used in MIC assays included gram-negative Escherichia coli K12 W3110, Pseudomonas aeruginosa laboratory strain PAO2 and Serratia marcescens laboratory strain and gram-positive Staphylococcus aureus NCTC 6571 and Micrococcus luteus laboratory strain.
(§2) Bacterial cultures were prepared by streaking the bacterial strains on to agar plates with an inoculation loop and incubating overnight at 37° C. A single colony was then selected and placed in 5 mL of Iso-Sensitest broth using an inoculation loop and incubated at 37° C. with shaking overnight.
(§3) MIC values were attained according to the protocol described by J. M. Andrews et al. [J. M. Andrews, J. Antimicrob. Chemother., 2001, 48, 5-16] and were conducted in 96-well microtitre plates in triplicate. 10-50 μL of each overnight culture was inoculated into 1.2 mL of Iso-Sensitest broth and grown at 37° C. with shaking. […] The inoculum was diluted ten-fold with Iso-Sensitest broth before use (to ˜10^3 cfu/spot). Peptide solutions were initially dissolved in DMSO (5 mg mL^−1) and then diluted further with Iso-Sensitest broth to achieve a concentration range of 4 mgL^−1 to 512 mgL^−1 using 2-fold serial dilutions. Samples were vortexed between dilutions where necessary to aid dissolution. 50 μL of inoculum and 50 μL of peptide solution were added to each test well to achieve a final concentration range of 2 mgL^−1 to 256 mgL^−1. Separate dilutions of ampicillin and DMSO were made up in a similar manner to act as a positive antibacterial control and a +DMSO control, respectively. 50 μL of inoculum and 50 μL of Iso-Sensitest broth were used as a positive control and 100 μL of inoculum was used as a negative control. Positive and negatives controls were conducted multiple times in parallel per plate. […] Quantitative data were attained as A650nm values using a BioTek® Synergy™ H4 Hybrid Multi-Mode Microplate Reader.

Experiment [2] has as its system Serratia marcescens laboratory strain. The conditions noted are these: 16 h. The protocol: as §1, §2, §3
The test system of experiment [3] is Pseudomonas aeruginosa laboratory strain PAO2. As for the experimental part:
as §1, §2, §3

Experiment [4] deals with Staphylococcus aureus NCTC 6571. As for the experimental part:
as §1, §2, §3

Experiment [5] relates to E. coli (ATCC 29522) biofilm. Put plainly: Single species biofilm treatment, crystal violet assay. Particulars: 100 μM peptoid, 24 hours, FIG. 17C. As for the experimental part:
C. albicans (NCTC 3179) was subcultured aerobically on Sabouraud agar plates and propagated in yeast peptone dextrose broth. E. coli (ATCC 29522) and S. aureus (NCTC 6571) were grown on blood agar plates and propagated in brain heart infusion (BHI) broth.
Overnight cultures of C. albicans were washed and resuspended in a modified RPMI-1640 (Sigma-Aldrich, St Louis, USA) medium to yield an inoculum of 1.0×10^6 cells/ml. Overnight cultures of S. aureus or E. coli were washed and resuspended in brain heart infusion broth (Oxoid, Basingstoke, UK) to yield an inoculum of 5.0×10^6 cells/ml. A total volume of 100 μl of each inoculum was added to microtitre plate wells (Thermo Fisher Scientific, Roskilde, Denmark). An initial biofilm was allowed to form for 4 hours. Wells were washed three times with 200 μl PBS to facilitate removal of planktonic cells and the biofilms were then treated with 100 μM of peptoids 1-4 in the appropriate broth. Plates were incubated for a further 24 hours to allow biofilm maturation. After removal of planktonic cells by washing, biofilms were quantified by the crystal violet assay or by PMA-qPCR.
Biofilm quantification by crystal violet assay Washed biofilms were fixed with 100 μl methanol for 10 minutes. Following removal of methanol, the wells were air dried and stained with crystal violet solution (Clin-Tech Ltd, Guildford, UK) for 20 minutes at room temperature. Excess stain was removed by washing, the plate was then air dried and bound crystal violet was re-solubilised in 16 μl 33% acetic acid prior to reading at 570 nm in a microtitre plate reader (Tecan GENios, Ziirich, Switzerland).

Experiment [6] concerns Leishmania mexicana (M379). The protocol:
Leishmania mexicana (M379) promastigote parasites were maintained at 26° C. in Schneider's Insect medium (Sigma-Aldrich) supplemented with heat-inactivated foetal bovine sera (FBS, 15%; Biosera Ltd). Cells were counted using a Neubauer Improved Haemocytometer. Promastigotes were transformed into axenic amastigotes by a pH and temperature shift as previously described. A culture of recently transformed (three days) promastigotes in the late log phase was transferred into Schneider's Insect medium supplemented with 20% heat-inactivated FBS (pH 5.5) at 5×10^5 parasites/mL. After 6 days, the parasites were in the metacyclic stage and used for transformation to amastigote-like forms by transfer in the same medium at 32° C. at 5×10^5 parasites/mL. After additional 5-7 days, the parasites should be in the amastigote stage and be ready for cytotoxicity studies and infections.
Cytotoxicity analyses were performed in 96-well plates (Costar, Fisher Scientific) using Alamar Blue (Invitrogen) for cell viability detection as previously described.
Promastigote and amastigote L. mexicana were pre-incubated with the compounds in triplicate (5 mM stock solutions in DMSO; Amphotericin B was used as a positive control; untreated parasites with DMSO as a negative control) in 50 μl of the corresponding media at 4×106 mL-1 for 1 hour. Afterwards, 40 μl were removed from each well before the addition of 90 μl of the corresponding media, followed by incubation for 24 hours at 4×105 mL-1. Then, 10 μl Alamar Blue solution (Invitrogen) was added to each well for an incubation of 4 hours prior to assessing cell viability using a fluorescent plate reader (Biotek; Ex 560 nm/Em 600 nm). To investigate the effects of serum on the efficacy of the peptoids, the assay described above was modified using serum-free medium for the pre-incubation time. For these assays, the parasites were washed three times in serum-free medium before adding them to the compound solutions. All of the experiments described above were carried out on a minimum of two separate occasions to ensure a robust data set was collected.

The mark [7] stands for this setting: second figure of cell, 37° C., 16 h, Iso-Sensitest broth.

Each structure is given as a SMILES string. Where two headings read alike, the source gives them in different places. Where a SMILES comes first, the peptide text is derived from it. [ ]: non-standard residue; d: D form. Nspe = C[C@H](NCC(=O)O)c1ccccc1; NhArg = N=C(N)NCCCCNCC(=O)O; Nlys = NCCCCNCC(=O)O

Turning to `C[C@@H](c1ccccc1)N(CC(N)=O)C(=O)CN(C(=O)CN(CCCCN)C(=O)CN(C(=O)CN(C(=O)CN(CCCCN)C(=O)CN(C(=O)CN(C(=O)CN(CCCCNC(=N)N)C(=O)CN(C(=O)CN(C(=O)CNCCCCNC(=N)N)[C@@H](C)c1ccccc1)[C@@H](C)c1ccccc1)[C@@H](C)c1ccccc1)[C@@H](C)c1ccccc1)[C@@H](C)c1ccccc1)[C@@H](C)c1ccccc1)[C@@H](C)c1ccccc1` [Peptoid 2, (NhArg-Nspe-Nspe)2(NLys-Nspe-Nspe)2] (H-[NhArg][Nspe][Nspe][NhArg][Nspe][Nspe][Nlys][Nspe][Nspe][Nlys][Nspe][Nspe]-NH2; N-terminus assumed), the “MIC E. coli” value in experiment [1] (K12, 16 h) turned out to be 17 µM; in experiment [1] (setting [7]), 32 mgL^−1. The “MIC S. marcescens” value in experiment [2] (laboratory strain) was determined as 134 µM; in experiment [2] (second figure of cell, 37° C., Iso-Sensitest broth), 256 mgL^−1. For the same compound, the “MIC P. aeruginosa” value in experiment [3] (laboratory strain PAO2, 16 h) was 17 µM; in experiment [3] (setting [7]) it was 32 mgL^−1. In addition, the “MIC S. aureus” value in experiment [4] (NCTC 6571, 16 h) stood at 17 µM; in experiment [4] (setting [7]), 32 mgL^−1. Moreover, the “activity against the E. coli biofilm” value in experiment [5] is given as “strongest anti-bacterial activity”. Moreover, in experiment [6] (parasite stage not given, read-out: IC50 L. mexicana), the IC50 was 34 µM. In addition, the “active against L. mexicana” value in experiment [6] (statement in words) is recorded as “active”.
